Target: Cdk9/cyclinT1 (Homo sapiens (Human), UniProt P50750)
Assay: Cdk9/CyclinT1 IMAP Protocol (fluorescence polarization kinase assay)
Assay type: biochemical
Details: Table 2; generated using one of the two Cdk9/cyclinT1 assays (IMAP or Alpha Screen), not specified which; unit inferred
Method in brief: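 Reaction used 4 nM Cdk9/cyclinT1, 100 nM 5TAMRA-cdk7tide peptide and 6 uM ATP in 100 mM Tris pH 7.2 with MgCl2, 0.01% Tween-20, 1 mM DTT and 2.5% DMSO, running 4.5 h. Phosphopeptide was captured by IMAP binding reagent for >1 h, then read by fluorescence polarization (ex 531/em 595 nm).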

Sequence of Cdk9/cyclinT1 (P50750 whole entry): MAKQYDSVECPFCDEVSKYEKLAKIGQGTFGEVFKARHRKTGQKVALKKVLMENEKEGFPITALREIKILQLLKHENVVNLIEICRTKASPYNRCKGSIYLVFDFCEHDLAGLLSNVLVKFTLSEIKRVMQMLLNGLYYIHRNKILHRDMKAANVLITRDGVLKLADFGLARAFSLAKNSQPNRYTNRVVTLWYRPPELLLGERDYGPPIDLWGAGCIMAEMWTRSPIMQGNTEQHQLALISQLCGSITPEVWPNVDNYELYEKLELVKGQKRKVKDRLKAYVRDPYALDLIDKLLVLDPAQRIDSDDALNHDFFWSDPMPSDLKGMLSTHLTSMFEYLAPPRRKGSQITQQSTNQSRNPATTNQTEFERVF
Sequence of Cdk9/cyclinT1 (O60563 whole entry partner): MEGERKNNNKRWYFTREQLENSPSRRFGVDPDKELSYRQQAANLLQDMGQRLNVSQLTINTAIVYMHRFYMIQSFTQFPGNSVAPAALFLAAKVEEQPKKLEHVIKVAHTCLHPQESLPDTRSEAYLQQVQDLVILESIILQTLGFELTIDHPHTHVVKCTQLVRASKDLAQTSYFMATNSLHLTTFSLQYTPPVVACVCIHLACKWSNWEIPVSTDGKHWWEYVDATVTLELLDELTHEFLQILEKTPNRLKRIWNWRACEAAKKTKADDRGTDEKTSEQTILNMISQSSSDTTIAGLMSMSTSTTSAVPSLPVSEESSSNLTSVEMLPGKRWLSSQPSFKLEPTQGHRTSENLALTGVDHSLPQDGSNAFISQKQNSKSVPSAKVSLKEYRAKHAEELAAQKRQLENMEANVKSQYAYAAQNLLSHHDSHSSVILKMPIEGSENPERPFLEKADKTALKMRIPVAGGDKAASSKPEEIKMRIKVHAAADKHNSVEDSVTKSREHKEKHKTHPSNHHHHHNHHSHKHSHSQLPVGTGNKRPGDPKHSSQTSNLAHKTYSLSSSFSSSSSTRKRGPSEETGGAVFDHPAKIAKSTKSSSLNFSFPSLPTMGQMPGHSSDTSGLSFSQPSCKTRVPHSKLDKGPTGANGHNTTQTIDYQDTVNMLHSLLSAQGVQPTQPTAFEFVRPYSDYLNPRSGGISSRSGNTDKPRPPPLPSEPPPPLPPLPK

Compound	IC50
N[C@H]1CC[C@H](Nc2cc(-c3cccc(NCc4cccc(F)c4)n3)c(F)cn2)CC1 [Compound 197]	7.94 nM
CN(C)[C@H]1CC[C@H](Nc2cc(-c3cccc(NCc4cc(F)cc(F)c4)n3)c(Cl)cn2)CC1 [Compound 198]	7.94 nM
OCCCN[C@H]1CC[C@H](Nc2cc(-c3cccc(NCc4cccc(F)c4)n3)c(Cl)cn2)CC1 [Compound 200]	7.94 nM
N[C@H]1CC[C@H](Nc2cc(-c3cncc(NCC4CCOCC4)n3)c(Cl)cn2)CC1 [Compound 203, trans-N1-(5-chloro-4-(6-((tetrahydro-2H-pyran-4-yl)methyl)aminopyrazin-2-yl)pyridin-2-yl)cyclohexane-1,4-diamine]	7.94 nM
CN(C)C(=O)[C@H]1CC[C@@H](Nc2cc(-c3cccc(NCc4cccc(F)c4)n3)c(Cl)cn2)C1 [Compound 205, (1S,3R)-3-(5′-chloro-6-(3-fluorobenzylamino)-2,4′-bipyridin-2′-yl-amino)-N,N-dimethylcyclopentanecarboxamide]	17.5 nM
O[C@H]1CC[C@H](Nc2cc(-c3cncc(NCC4CCOCC4)n3)c(Cl)cn2)CC1 [Compound 208, trans-4-(5-chloro-4-(6-((tetrahydro-2H-pyran-4-yl)methyl)aminopyrazin-2-yl)pyridin-2-yl-amino)cyclohexanol]	7.94 nM
CN1CCC(CNc2cc(-c3cncc(NCC4CCOCC4)n3)c(Cl)cn2)CC1 [Compound 209]	183 nM
OCCNc1cc(-c2cncc(NCC3CCOCC3)n2)c(Cl)cn1 [Compound 210]	86 nM
Cc1cnc(N[C@H]2CC[C@H](N)CC2)cc1-c1cccc(NCc2cccc(F)c2)n1 [Compound 211, N2′-(trans-4-aminocyclohexyl)-N6-(3-fluorobenzyl)-5′-methyl-2,4′-bipyridine-2′,6-diamine]	21 nM
N[C@H]1CC[C@H](Nc2cc(-c3cccc(N[C@@H]4CC45CCOCC5)n3)c(Cl)cn2)CC1 [Compound 212]	54.6 nM
O=C([C@H]1CC[C@@H](Nc2cc(-c3cccc(NCc4cccc(F)c4)n3)c(Cl)cn2)C1)N1CCCC1 [Compound 213]	14.2 nM
CC(=O)N1CCC[C@H](CNc2cccc(-c3cc(N[C@H]4CC[C@H](N)CC4)ncc3Cl)n2)C1 [Compound 215, 1-((R)-3-((2′-(trans-4-aminocyclohexylamino)-5′-chloro-2,4′-bipyridin-6-yl-amino)methyl)piperidin-1-yl)ethanone]	65.5 nM
CC(=O)N1CCC[C@H](CNc2cccc(-c3ccnc(N[C@H]4CC[C@H](N)CC4)c3)n2)C1 [Compound 216, 1-((R)-3-((2′-(trans-4-aminocyclohexylamino)-2,4′-bipyridin-6-yl-amino)methyl)piperidin-1-yl)ethanone]	138 nM
CC(=O)N1CCC[C@@H](CNc2cccc(-c3cc(N[C@H]4CC[C@H](N)CC4)ncc3Cl)n2)C1 [Compound 217]	37.3 nM
CC(=O)N1CCC[C@@H](CNc2cccc(-c3ccnc(N[C@H]4CC[C@H](N)CC4)c3)n2)C1 [Compound 218]	128 nM
N[C@H]1CC[C@H](Nc2cc(-c3cnc(Cl)c(NCC4CCOCC4)n3)c(Cl)cn2)CC1 [Compound 221]	7.95 nM
O[C@H]1CC[C@H](Nc2cc(-c3cnc(Cl)c(NCC4CCOCC4)n3)c(Cl)cn2)CC1 [Compound 222, trans-4-(5-chloro-4-(5-chloro-6-((tetrahydro-2H-pyran-4-yl)methyl)aminopyrazin-2-yl)pyridin-2-yl-amino)cyclohexanol]	7.95 nM
N[C@H]1CC[C@H](Nc2cc(-c3nc(NCC4CCOCC4)cnc3Cl)c(Cl)cn2)CC1 [Compound 223, trans-N1-(5-chloro-4-(3-chloro-6-((tetrahydro-2H-pyran-4-yl)methyl)aminopyrazin-2-yl)pyridin-2-yl)cyclohexane-1,4-diamine]	7.95 nM
NC(=O)c1ncc(-c2cc(N[C@H]3CC[C@H](N)CC3)ncc2Cl)nc1NCC1CCOCC1 [Compound 224, 5-(2-(trans-4-aminocyclohexylamino)-5-chloropyridin-4-yl)-3-((tetrahydro-2H-pyran-4-yl)methyl)aminopyrazine-2-carboxamide]	91.9 nM
Clc1cnc(N[C@H]2CC[C@H](N3CCCC3)CC2)cc1-c1cnc(Cl)c(NCC2CCOCC2)n1 [Compound 225, 3-chloro-6-(5-chloro-2-(trans-4-(pyrrolidin-1-yl)cyclohexylamino)pyridin-4-yl)-N-((tetrahydro-2H-pyran-4-yl)methyl)pyrazin-2-amine]	7.95 nM
Nc1ncc(-c2cc(N[C@H]3CC[C@H](N)CC3)ncc2Cl)nc1NCC1CCOCC1 [Compound 226, 6-(2-(trans-4-aminocyclohexylamino)-5-chloropyridin-4-yl)-N2-((tetrahydro-2H-pyran-4-yl)methyl)pyrazine-2,3-diamine]	7.95 nM
Nc1ncc(-c2cc(N[C@H]3CC[C@H](O)CC3)ncc2Cl)nc1NCC1CCOCC1 [Compound 227]	25.9 nM

Compound	IC50
N[C@H]1CC[C@H](Nc2cc(-c3cncc(NCC4CCCOC4)n3)c(Cl)cn2)CC1 (some centres unmarked) [Compound 228]	7.95 nM
O[C@H]1CC[C@H](Nc2cc(-c3cncc(NCC4CCCOC4)n3)c(Cl)cn2)CC1 (some centres unmarked) [Compound 229]	7.95 nM
Cc1ncc(-c2cc(N[C@H]3CC[C@H](N)CC3)ncc2Cl)nc1NCC1CCOCC1 [Compound 231, trans-N1-(5-chloro-4-(5-methyl-6-((tetrahydro-2H-pyran-4-yl)methyl)aminopyrazin-2-yl)pyridin-2-yl)cyclohexane-1,4-diamine]	14.9 nM
N[C@H]1CC[C@H](Nc2cc(-c3nc(NCC4CCOCC4)cnc3Cl)ccn2)CC1 [Compound 232]	7.95 nM
Cc1ncc(NCC2CCOCC2)nc1-c1cc(N[C@H]2CC[C@H](N)CC2)ncc1Cl [Compound 233, trans-N1-(5-chloro-4-(3-methyl-6-((tetrahydro-2H-pyran-4-yl)methyl)aminopyrazin-2-yl)pyridin-2-yl)cyclohexane-1,4-diamine]	7.95 nM
CCc1ncc(-c2cc(N[C@H]3CC[C@H](N)CC3)ncc2Cl)nc1NCC1CCOCC1 [Compound 241, trans-N^1-(5-chloro-4-(5-ethyl-6-((tetrahydro-2H-pyran-4-yl)methyl)aminopyrazin-2-yl)pyridin-2-yl)cyclohexane-1,4-diamine]	61.8 nM
OC[C@H]1CC[C@H](Nc2cc(-c3cncc(NCC4CCOCC4)n3)c(Cl)cn2)CC1 [Compound 242]	15.4 nM
COCCN[C@H]1CC[C@H](Nc2cc(-c3cncc(NCC4CCOCC4)n3)c(Cl)cn2)CC1 [Compound 243, trans-N1-(5-chloro-4-(6-((tetrahydro-2H-pyran-4-yl)methyl)aminopyrazin-2-yl)pyridin-2-yl)-N4-(2-methoxyethyl)cyclohexane-1,4-diamine]	7.95 nM
CC(=O)N[C@H]1CC[C@H](Nc2cc(-c3cncc(NCC4CCOCC4)n3)c(Cl)cn2)CC1 [Compound 244, N-(trans-4-(5-chloro-4-(6-((tetrahydro-2H-pyran-4-yl)methyl)aminopyrazin-2-yl)pyridin-2-yl-amino)cyclohexyl)acetamide]	79 nM
CS(=O)(=O)N[C@H]1CC[C@H](Nc2cc(-c3cncc(NCC4CCOCC4)n3)c(Cl)cn2)CC1 [Compound 245]	53.4 nM
NC[C@H]1CC[C@H](Nc2cc(-c3cncc(NCC4CCOCC4)n3)c(Cl)cn2)CC1 [Compound 246]	11.5 nM
CC(=O)NC[C@H]1CC[C@H](Nc2cc(-c3cncc(NCC4CCOCC4)n3)c(Cl)cn2)CC1 [Compound 247]	20.2 nM
CN(CC1CCOCC1)c1cncc(-c2cc(N[C@H]3CC[C@H](N)CC3)ncc2Cl)n1 [Compound 248]	10.6 nM
CN(CC1CCOCC1)c1cncc(-c2cc(N[C@H]3CC[C@H](CN)CC3)ncc2Cl)n1 [Compound 249, 6-(2-(trans-4-(aminomethyl)cyclohexylamino)-5-chloropyridin-4-yl)-N-methyl-N-((tetrahydro-2H-pyran-4-yl)methyl)pyrazin-2-amine]	31.8 nM
CN(CC1CCOCC1)c1cncc(-c2cc(N[C@H]3CC[C@H](O)CC3)ncc2Cl)n1 [Compound 250]	28.4 nM
CN(CC1CCOCC1)c1cncc(-c2cc(N[C@H]3CC[C@H](CO)CC3)ncc2Cl)n1 [Compound 251]	43.2 nM
COCCN[C@H]1CC[C@H](Nc2cc(-c3cncc(N(C)CC4CCOCC4)n3)c(Cl)cn2)CC1 [Compound 252]	7.94 nM
N[C@H]1CC[C@H](Nc2cc(-c3nc(NCC4CCOCC4)ccc3Cl)c(Cl)cn2)CC1 [Compound 253, N2′-(trans-4-aminocyclohexyl)-3,5′-dichloro-N6-((tetrahydro-2H-pyran-4-yl)methyl)-2,4′-bipyridine-2′,6-diamine]	7.94 nM
CS(=O)(=O)CCN[C@H]1CC[C@H](Nc2cc(-c3nc(NCC4CCOCC4)ccc3Cl)c(Cl)cn2)CC1 [Compound 254, 3,5′-dichloro-N2′-(trans-4-(2-(methylsulfonyl)ethylamino)cyclohexyl)-N6-((tetrahydro-2H-pyran-4-yl)methyl)-2,4′-bipyridine-2′,6-diamine]	8.33 nM
N[C@H]1CC[C@H](Nc2cc(-c3nc(NCC4CCOCC4)cnc3C(F)(F)F)c(Cl)cn2)CC1 [Compound 255, trans-N1-(5-chloro-4-(6-((tetrahydro-2H-pyran-4-yl)methyl)amino-3-(trifluoromethyl)pyrazin-2-yl)pyridin-2-yl)cyclohexane-1,4-diamine]	42.3 nM
COCCN[C@H]1CC[C@H](Nc2cc(-c3nc(NCC4CCOCC4)ccc3Cl)c(Cl)cn2)CC1 [Compound 258, 3,5′-dichloro-N2′-(trans-4-(2-methoxyethylamino)cyclohexyl)-N6-((tetrahydro-2H-pyran-4-yl)methyl)-2,4′-bipyridine-2′,6-diamine]	7.94 nM
OCCN[C@H]1CC[C@H](Nc2cc(-c3nc(NCC4CCOCC4)ccc3Cl)c(Cl)cn2)CC1 [Compound 259, 2-(trans-4-(3,5′-dichloro-6-((tetrahydro-2H-pyran-4-yl)methyl)amino-2,4′-bipyridin-2′-yl-amino)cyclohexylamino)ethanol]	7.94 nM

Reference: patent US8778951B2, “Heteroaryl compounds and their uses” (Novartis AG, priority 2009, dated 2014)
